Values quoted from earlier work, collected in patent US11780971B2, “Active yarns and textiles for the stabilization and controlled release of active compounds” (priority 2018, dated 2023).
Several values for one entry are separate records, joined by “and”; a condition that tells them apart may be missing. Identical values can stand only once.

System: Staphylococcus aureus strain

Minimum Inhibitory Concentration (MIC): 625 µg/mL and 662 µg/mL
SMILES: C=CCc1ccc(O)c(OC)c1 [eugenol]
